Results: PMC3401513 (Molecular imaging and biology : MIB : the official …, 2012)
Where “and” joins values, the source holds several entries; their conditions need not be identical. Equal entries are not always repeated. Where two headings read alike, the source gives them in different places.

Biological target: integrin αvβ3 (Homo sapiens, UniProt P05106+P06756)
Conditions: for tumor washout (time-activity curves): MDA-MB-435 tumor, unblocked; for decrease in BpND after blocking with an excess amount of unlabeled RGD peptide: blocked vs unblocked
[1] = 60-min dynamic PET, n = 4/group
[2] = Blocked: c(RGDyK) injected 10 min before scanning, tumor region, MDA-MB-435 tumor-bearing mice, 60-min dynamic PET, mean ± SD, n = 4/group
[3] = Blocked: c(RGDyK) injected 10 min before scanning, tumor region, MDA-MB-435 tumor-bearing mice, 60-min dynamic PET, three-compartment model fit, mean ± SD, n = 4/group
[4] = MDA-MB-435 tumor-bearing mice, n = 4/group

Chain of integrin αvβ3 (P06756 31-889 limits assumed): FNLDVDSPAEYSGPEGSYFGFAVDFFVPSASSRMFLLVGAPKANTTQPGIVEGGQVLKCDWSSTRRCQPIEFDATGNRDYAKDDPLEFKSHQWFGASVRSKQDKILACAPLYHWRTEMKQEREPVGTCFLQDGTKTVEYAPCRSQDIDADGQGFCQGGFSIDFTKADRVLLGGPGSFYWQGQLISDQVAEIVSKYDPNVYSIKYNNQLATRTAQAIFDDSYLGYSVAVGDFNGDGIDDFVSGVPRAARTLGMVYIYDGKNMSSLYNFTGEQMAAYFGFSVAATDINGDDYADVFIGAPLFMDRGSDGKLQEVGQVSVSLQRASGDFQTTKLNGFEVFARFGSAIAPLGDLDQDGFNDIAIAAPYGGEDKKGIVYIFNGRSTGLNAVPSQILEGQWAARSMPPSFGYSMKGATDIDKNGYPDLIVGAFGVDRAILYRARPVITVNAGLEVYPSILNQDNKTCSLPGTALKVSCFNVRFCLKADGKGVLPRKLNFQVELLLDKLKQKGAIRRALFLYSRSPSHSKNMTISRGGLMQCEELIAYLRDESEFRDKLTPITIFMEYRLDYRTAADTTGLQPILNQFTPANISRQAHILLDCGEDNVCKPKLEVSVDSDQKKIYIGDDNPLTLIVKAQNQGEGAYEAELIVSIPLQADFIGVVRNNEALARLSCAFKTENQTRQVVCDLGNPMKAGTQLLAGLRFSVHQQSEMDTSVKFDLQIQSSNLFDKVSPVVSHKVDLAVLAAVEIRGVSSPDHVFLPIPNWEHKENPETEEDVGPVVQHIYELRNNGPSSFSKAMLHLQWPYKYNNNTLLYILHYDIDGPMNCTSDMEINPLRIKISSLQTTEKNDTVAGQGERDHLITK
Chain of integrin αvβ3 (P06756 891-1048 partner limits assumed): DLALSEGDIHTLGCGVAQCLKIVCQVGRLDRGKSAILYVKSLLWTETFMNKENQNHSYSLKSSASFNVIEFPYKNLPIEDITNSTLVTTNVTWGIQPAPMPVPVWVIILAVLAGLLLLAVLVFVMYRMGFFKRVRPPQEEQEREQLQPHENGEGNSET
Chain of integrin αvβ3 (P05106 27-788): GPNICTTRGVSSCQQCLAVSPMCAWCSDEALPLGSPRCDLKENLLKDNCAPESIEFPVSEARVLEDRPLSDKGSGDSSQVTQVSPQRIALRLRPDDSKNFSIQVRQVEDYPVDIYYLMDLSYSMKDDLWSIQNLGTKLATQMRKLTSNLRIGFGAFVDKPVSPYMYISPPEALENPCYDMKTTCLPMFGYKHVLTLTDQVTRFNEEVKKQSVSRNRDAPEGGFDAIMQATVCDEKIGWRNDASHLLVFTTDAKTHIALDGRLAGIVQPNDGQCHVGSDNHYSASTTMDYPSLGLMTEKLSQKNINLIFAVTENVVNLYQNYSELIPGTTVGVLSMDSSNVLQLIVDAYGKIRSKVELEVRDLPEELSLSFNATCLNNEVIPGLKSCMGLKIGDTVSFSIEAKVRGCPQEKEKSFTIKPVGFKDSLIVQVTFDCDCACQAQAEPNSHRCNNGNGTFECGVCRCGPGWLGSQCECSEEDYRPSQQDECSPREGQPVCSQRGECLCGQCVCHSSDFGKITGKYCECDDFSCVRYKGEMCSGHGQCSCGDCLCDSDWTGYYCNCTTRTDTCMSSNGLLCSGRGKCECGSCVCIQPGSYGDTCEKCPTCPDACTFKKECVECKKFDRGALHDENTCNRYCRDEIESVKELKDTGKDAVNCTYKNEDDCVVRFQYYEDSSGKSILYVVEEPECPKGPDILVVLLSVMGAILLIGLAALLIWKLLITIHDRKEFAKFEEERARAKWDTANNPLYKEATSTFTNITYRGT

| tumor washout (time-activity curves) [1] | BpND (binding potential = k3/k4) (Unblock, tumor region, MDA-MB-435 tumor-bearing mice, 60-min dynamic PET, three-compartment model, mean ± SD, n = 4/group) | k2 (clearance from tissue) (mouse, in vivo) [min⁻¹] | BpND (binding potential = k3/k4) [2] | k3 (on-rate for specific binding) [3] [min⁻¹] | k4 (target dissociation rate) [3] [min⁻¹] | BpND (binding potential = k3/k4) (Unblock, tumor region, MDA-MB-435 tumor-bearing mice, 60-min dynamic PET, three-compartment model, mean ± SD, n = 4/group, listed as RGD Dimer) | specific bound component (Cm) in the tumor region relative to the monomer (at 1-h, separated by model fitting) | decrease in BpND after blocking with an excess amount of unlabeled RGD peptide [4] | K1 (transfer from arterial plasma to tissue) (mouse, in vivo) [mL/g/min] | BpND (binding potential = k3/k4) (Unblock, tumor region, MDA-MB-435 tumor-bearing mice, 60-min dynamic PET, three-compartment model, mean ± SD, n = 4/group, listed as RGD Monomer) | Substance |
| --- | --- | --- | --- | --- | --- | --- | --- | --- | --- | --- | --- |
| most rapid tumor washout | 0.89 ± 0.19 and 0.893±0.192 | 0.334 ± 0.092 |  |  |  |  |  |  |  |  | ^18F-FP-c(RADyK) [^18F-FPRAD, reference compound] |
| much slower tumor washout |  |  | 1.257±0.293 | 0.064 ± 0.023 | 0.050 ± 0.009 | 5.865±0.312 | almost twice as much | ~ 80% | 0.082 ± 0.031 |  | ^18F-FP-PEG3-E[c(RGDyK)]2 [^18F-FPPRGD2] |
|  |  |  | 1.110±0.155 | 0.051 ± 0.016 |  |  |  | ~ 60% | 0.276 ± 0.256 | 2.747±0.483 | ^18F-FP-c(RGDyK) [^18F-FPRGD] |
